The target in one test is T1, PDE V (Homo sapiens, UniProt O76074).
T1 construct: PDE V (cGMP-specific) is isolated from human blood platelets; from tissue; host or cells: human blood platelets
The test is described as follows: PDE V inhibition (in vitro), cGMP-specific PDE isolated from human blood platelets. Format: biochemical. As to conditions: substrate 0.5 μM cGMP. The method, then:
Phosphodiesterase (PDE) activity is determined with a few modifications (Bauer, A. C.; Schwabe, U., An improved assay of cyclic 3',5'-nucleotide phosphodiesterase with QAE Sephadex A-25. Naunyn-Schmiedeberg's Arch. Pharmacol. 311 193-198 (1980)) after the method described by Thompson et al. (Thompson, W. J.; Appleman, M. M., Assay of cyclic nucleotide phosphodiesterase and resolution of multiple molecular forms of the enzyme. Adv. Cycl. Nucl. Res. 10 69-92 (1979)) The reaction mixture contains 40 mM Tris-HCl (pH 7.4), 5 mM MgCl2, 0.5 μM cAMP or cGMP, [^3 H]cAMP or [^3 H]cGMP (approx. 20,000 cpm/test) and the other components needed to record the individual isoenzymes (see below). The final volume is 200 μl. Test substances are prepared as stock solutions in DMSO. The DMSO concentration in the reaction mixture is the same or less than 1% v/v. The PDE activity is not influenced at this DMSO concentration. After pre-incubation for 5 minutes at 37° C. the reaction is started by adding the substrate (cAMP or cGMP). The samples are incubated for a further 15 minutes at 37° C. The reaction is stopped by adding 50 μl 0.2N HCl. The samples remain in the ice for a further 10 minutes. […] The radioactivity of the individual fractions is recorded using scintigraphy. […]

In the next test the test system is PDE IV. Kind of test: PDE IV inhibition (in vitro), cAMP-specific PDE of cytosol of human polymorphonuclear leucocytes. The test is classed as biochemical. As to conditions: substrate 0.5 μM cAMP, motapizon 1 μM. Here is the method: Phosphodiesterase (PDE) activity is determined with a few modifications (Bauer, A. C.; Schwabe, U., An improved assay of cyclic 3',5'-nucleotide phosphodiesterase with QAE Sephadex A-25. Naunyn-Schmiedeberg's Arch. Pharmacol. 311 193-198 (1980)) after the method described by Thompson et al. (Thompson, W. J.; Appleman, M. M., Assay of cyclic nucleotide phosphodiesterase and resolution of multiple molecular forms of the enzyme. Adv. Cycl. Nucl. Res. 10 69-92 (1979)) The reaction mixture contains 40 mM Tris-HCl (pH 7.4), 5 mM MgCl2, 0.5 μM cAMP or cGMP, [^3 H]cAMP or [^3 H]cGMP (approx. 20,000 cpm/test) and the other components needed to record the individual isoenzymes (see below). The final volume is 200 μl. Test substances are prepared as stock solutions in DMSO. The DMSO concentration in the reaction mixture is the same or less than 1% v/v. The PDE activity is not influenced at this DMSO concentration. […] The radioactivity of the individual fractions is recorded using scintigraphy.
The PDE IV (cAMP-specific) activity is determined after the method described by Schudt et al. (Schudt C.; Winter S.; Forderkurz S.; Hatzelmann A.; Ullrich V., Influence of selective phosphodiesterase inhibitors on human neutrophil functions and levels of cAMP and Ca. Naunyn-Schmiedeberg's Arch. Pharmacol. 344, 682-690 (1991)) describe a method in the cytosol of human polymorpho-nuclear leucocytes. […]

The subject of test [1] is Histamine precontracted trachea. Kind of test: Influence on the trachea precontracted using histamine. The note with it: Cavia porcellus, guinea pig trachea. The method, then: Guinea pigs are exsanguinated under narcosis. The trachea is then prepared free from adjacent tissue and cut into five equal parts (at least 3 trachea-rings wide). The trachea parts are suspended in a bath filled with a nutrient solution (Krebs-Henseleit). The strength of contraction of the trachea can be measured using force transducers. After suspension, a 15-minute acclimatisation period is allowed. The trachea is then totally relaxed using isoprenaline (1×10^-7 mol/l). The bath vessel is then rinsed. A contraction maximum is triggered using metacholine (10×10^-5 mol/l). The bath vessel is then rinsed again. Histamine ([…]) is then added. The contraction maximum is reached after approx. 10 minutes. The test substance is then added to the bath in increasing concentration and the contraction-triggering effect determined in percent to an untreated control. The mean contraction-triggering concentration is calculated using regression apparatuses. To check the function of the organs, isoprenaline (1×10^-5 mol/l) is then added to the bath to see whether the organs are still able to relax.

Test [2] has as its system Ovalbumin-induced eosinophilia. Kind of test: Asthmatic late phase reaction: ovalbumin-induced eosinophilia in guinea pigs (BAL). Format: in vivo, guinea pig. The note with it: 1 mg/kg i.p., 2 hours before allergen challenge, BAL 24 hours after. The method, then:
Male guinea pigs (250-300 g, Pirbright white, Charles River Wiga) are actively sensitised by s.c. injection of ovalbumin (10 μg+100 mg aluminium hydroxide) and boosted 2 weeks later. One week after the boosting (10 μg+100 mg aluminium hydroxide) the animals are exposed of an aerosol of nebulised 0.5 % ovalbumin solution for 20 seconds. 24 hours later, the bronchoalveolar lavage (BAL) is carried out using 2×5 ml sodium chloride solution on animals sacrificed with an overdose of pentobarbital. The lavage liquid is pooled and centrifuged for 10 minutes. The cell pellet is suspended in 1 ml physiological sodium chloride solution and the eosinophils are counted microscopically in a counting chamber using a Becton-Dickinson eosinophil kit. The eosinophils are counted for each guinea pig. The mean value is calculated for each group. The inhibition of the eosinophils for the group treated with substance is obtained using the formula:
(A-C)-(B-C)/(A-C)×100=% inhibition
A=Eosinophils in the untreated control group challenged with ovalbumin
B=Eosinophils in the group treated with the substance and challenged with ovalbumin
C=Eosinophils in the control group not challenged with ovalbumin
The substance was applied 2 hours before allergen challenge p,o, (in 1% methocel) or i.p. (in 0.5% methocel). The control groups receive 1% methocel p.o. or 0.5% methocel i.p. 2 hours before allergen challenge.

The values below come from patent US5723463A, “Pyrido [3,2-E]pyrazinones with anti-asthmatic action and processes for their manufacture” (ASTA Medica Aktiengesellschaft, priority 1995, dated 1998).

As a reminder, the IC50 is the concentration at which inhibition is half-maximal. A lower IC50 goes with greater potency in that assay.

Consider `CCCn1c(=O)c2c(C)nc(CC)n2c2nc(OC)ccc21` [embodiment 1, 1-ethyl-8-methoxy-3-methyl-5-propyloimidazo[1,5-a]pyrido[3,2-e]-pyrazinone], for which the IC50 at PDE V worked out at 95 nM; with PDE IV, 100 nM; in test [1], 700 nM. Also, the “Ovalbumin-induced eosinophilia: % inhibition of eosinophils” value in test [2] was 74%.
